Test results taken from the supplement of paper PMC10331698.
± gives the standard deviation of the averaged measurements.

Assays:
Assay in all cases: level (log10 ratio to DMSO vehicle control); higher = higher biomarker level / cell amount than vehicle control
[1] = compound: C=C(C)C(=O)OCC(F)(F)C(F)(F)C(F)(F)F [2,2,3,3,4,4,4-Heptafluorobutyl methacrylate]; conditions: in DMSO
Procedure: (§1)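 BioMAP Diversity Plus panel of 12 human primary cell co-culture systems (3C, 4H, LPS, SAg, BT, BF4T, BE3C, CASM3C, HDF3CGF, KF3CT, MyoF, Mphg). Compounds were added 1 h before stimulation and left for 24 h (MyoF 48 h; BT 72 h for soluble read-outs or 6 d for IgG). Biomarkers were read by ELISA, cytotoxicity by SRB, PBMC viability and proliferation by Alamar Blue. Each well value was divided by the mean of 8 DMSO control wells on the same plate and log10 transformed; duplicate blinded samples were tested at 4 concentrations.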

[2] = compound: C=CC(=O)OCC(F)(F)C(F)(F)C(F)(F)C(F)(F)COC(=O)C=C [1H,1H,6H,6H-Perfluorohexane-1,6-diol diacrylate]; conditions: 6700 nM; in DMSO
Procedure: as §1

[3] = compound: Cc1ccc(S(=O)(=O)OCC(F)(F)C(F)(F)C(F)(F)C(F)(F)C(F)(F)C(F)F)cc1 [1H,1H,7H-Perfluoroheptyl 4-methylbenzenesulfonate]; conditions: in DMSO
Procedure: as §1

[4] = compound: O=C(O)C(F)(F)C(F)(F)C(F)(F)C(F)(F)C(F)(F)C(F)(F)C(F)(F)F [Perfluorooctanoic acid]; conditions: in DMSO
Procedure: as §1

[5] = compound: O=S(=O)(OCC(F)(F)F)C(F)(F)C(F)(F)C(F)(F)C(F)(F)F [2,2,2-Trifluoroethyl perfluorobutanesulfonate]; conditions: in DMSO
Procedure: as §1

[6] = compound: OC(C(F)(F)F)(C(F)(F)F)C(O)(C(F)(F)F)C(F)(F)F [Perfluoropinacol]; conditions: in DMSO
Procedure: as §1

[7] = compound: OCC(F)(F)C(F)(F)C(F)(F)C(F)(F)C(F)(F)C(F)(F)C(F)(F)C(F)(F)CO [1H,1H,10H,10H-Perfluorodecane-1,10-diol]; conditions: in DMSO
Procedure: as §1

[8] = compound: OCCC(F)(F)C(F)(F)C(F)(F)C(F)(F)C(F)(F)C(F)(F)C(F)(F)C(F)(F)F [8:2 Fluorotelomer alcohol]; conditions: 6700 nM; in DMSO
Procedure: as §1

Row | Test System | level (log10) ([1]; 6700 nM) | level (log10) ([1]; 20000 nM) | level (log10) ([1]; 60000 nM) | level (log10) [2] | level (log10) ([3]; 6700 nM) | level (log10) ([3]; 20000 nM) | level (log10) ([3]; 60000 nM) | level (log10) ([4]; 6700 nM) | level (log10) ([4]; 20000 nM) | level (log10) ([4]; 60000 nM) | level (log10) ([5]; 6700 nM) | level (log10) ([5]; 20000 nM) | level (log10) ([5]; 60000 nM) | level (log10) ([6]; 6700 nM) | level (log10) ([6]; 20000 nM) | level (log10) ([7]; 6700 nM) | level (log10) ([7]; 20000 nM) | level (log10) ([7]; 60000 nM) | level (log10) [8]
1 | LPS:sTNF-alpha | 0.005 ± 0.0057 | 0.018 ± 0.052 | 0.0415 ± 0.0092 | 0.0235 ± 0.029 | 0.003 ± 0.0057 | -0.006 ± 0.016 | -0.0035 ± 0.0064 | 0.032 ± 0.0099 | 0.0305 ± 0.021 | 0.0085 ± 0.013 | -0.0075 ± 0.043 | -0.0745 ± 0.076 | -0.225 ± 0.018 | -0.0005 ± 0.025 | 0.008 ± 0.03 | -0.0915 ± 0.069 | -0.043 ± 0.0085 | -0.023 | 0.0175 ± 0.03
2 | 4H:CD62P/P-selectin | -0.002 ± 0.052 | -0.008 ± 0.037 | 0.129 ± 0.021 | -0.104 ± 0.026 | 0.052 ± 0.033 | 0.002 ± 0.035 | 0.149 ± 0.012 | -0.005 ± 0.013 | 0.001 ± 0.0014 | 0.05 ± 0.02 | -0.0365 ± 0.016 | -0.034 ± 0.0085 | -0.0525 ± 0.015 | -0.0165 ± 0.022 | -0.217 ± 0.06 | -0.029 ± 0.052 | -0.07 ± 0.083 | -0.169 | -0.0615 ± 0.0064
3 | BF4T:MMP-9 | -0.015 ± 0.025 | -0.0265 ± 0.0078 | 0.0195 ± 0.049 | 0.0005 ± 0.00071 | 0.0045 ± 0.012 | -0.008 ± 0.011 | -0.0435 ± 0.023 | -0.006 ± 0.0057 | 0.02 ± 0.013 | 0.0215 ± 0.013 | -0.017 ± 0.0028 | -0.0145 ± 0.029 | -0.0225 ± 0.0064 | -0.0245 ± 0.00071 | -0.0515 ± 0.0092 | -0.0185 ± 0.015 | -0.063 ± 0.0028 | -0.135 | -0.0325 ± 0.0078
4 | 3C:CXCL9/MIG | -0.0035 ± 0.005 | 0.002 | 0.0095 ± 0.021 | 0.002 ± 0.0042 | 0.005 ± 0.011 | -0.008 ± 0.0014 | -0.01 ± 0.0042 | 0.001 ± 0.021 | 0.0095 ± 0.023 | 0.0265 ± 0.022 | 0.0075 ± 0.043 | 0.0045 ± 0.026 | 0.0025 ± 0.022 | -0.005 ± 0.013 | -0.014 ± 0.0085 | -0.0145 ± 0.011 | -0.016 ± 0.0071 | -0.007 | -0.015 ± 0.0071
5 | SAg:CD40 | -0.038 ± 0.02 | -0.032 ± 0.011 | -0.023 ± 0.025 | -0.0895 ± 0.023 | -0.0125 ± 0.0078 | 0.001 ± 0.031 | -0.0135 ± 0.011 | 0.002 ± 0.013 | -0.017 ± 0.014 | -0.0415 ± 0.012 | -0.0165 ± 0.018 | -0.019 ± 0.017 | -0.0635 ± 0.049 | -0.021 ± 0.016 | -0.146 ± 0.013 | -0.0395 ± 0.0078 | -0.0625 ± 0.028 | -0.081 | 0 ± 0.0042
6 | BT:Secreted IgG | 0.0145 ± 0.036 | 0.029 ± 0.018 | 0.024 ± 0.03 | -0.489 ± 0.25 | 0.006 ± 0.018 | -0.019 ± 0.035 | -0.22 ± 0.18 | 0.0095 ± 0.026 | -0.005 ± 0.013 | -0.0165 ± 0.0078 | -0.0615 ± 0.043 | -0.0585 ± 0.016 | -0.162 ± 0.058 | -0.322 ± 0.02 | -1.36 | -0.0135 ± 0.005 | -0.0415 ± 0.011 | -0.82 | -0.0885 ± 0.088
7 | LPS:CD40 | 0.0015 ± 0.037 | 0.024 ± 0.034 | 0.0525 ± 0.012 | -0.1475 ± 0.00071 | -0.0185 ± 0.066 | 0.0215 ± 0.054 | 0.129 ± 0.061 | 0.006 ± 0.025 | -0.032 ± 0.057 | -0.0815 ± 0.022 | -0.014 ± 0.017 | -0.0495 ± 0.0035 | -0.104 ± 0.064 | -0.0285 ± 0.073 | -0.16 ± 0.03 | -0.0225 ± 0.015 | -0.0585 ± 0.037 | -0.095 | -0.068 ± 0.014
8 | BF4T:Keratin 8/18 | -0.013 ± 0.035 | -0.029 ± 0.014 | -0.0245 ± 0.039 | 0.0065 ± 0.029 | 0.0085 ± 0.039 | 0.005 ± 0.028 | -0.0285 ± 0.028 | -0.0045 ± 0.012 | -0.0025 ± 0.0092 | 0.0025 ± 0.022 | 0.002 ± 0.016 | -0.0025 ± 0.016 | -0.0335 ± 0.0078 | -0.013 ± 0.0099 | -0.036 ± 0.0071 | 0.005 ± 0.028 | 0.027 ± 0.018 | -0.024 | -0.008 ± 0.0028
9 | BF4T:tPA | -0.0165 ± 0.032 | 0.0025 ± 0.00071 | 0.012 ± 0.023 | -0.0425 ± 0.0021 | -0.0305 ± 0.025 | -0.0255 ± 0.022 | -0.0555 ± 0.025 | -0.065 ± 0.05 | -0.0715 ± 0.03 | -0.093 ± 0.031 | 0.0025 ± 0.0021 | 0.011 ± 0.023 | 0.015 ± 0.0028 | -0.028 ± 0.011 | 0.032 ± 0.014 | -0.061 ± 0.016 | -0.164 ± 0.013 | -0.246 | -0.103 ± 0.029
10 | 3C:SRB | -0.0125 ± 0.0021 | -0.001 ± 0.0057 | 0.0035 ± 0.00071 | -0.0015 ± 0.028 | 0.006 ± 0.0071 | -0.016 ± 0.013 | -0.125 ± 0.0042 | -0.017 ± 0.0042 | 0.0045 ± 0.019 | -0.102 ± 0.044 | -0.0135 ± 0.0021 | -0.014 ± 0.0028 | -0.0295 ± 0.012 | -0.0665 ± 0.013 | -0.188 ± 0.0028 | 0.01 ± 0.034 | -0.021 ± 0.033 | -0.106 | -0.014 ± 0.0099
11 | 3C:Proliferation | -0.0315 ± 0.044 | -0.0325 ± 0.033 | -0.049 ± 0.02 | -0.307 ± 0.084 | -0.02 ± 0.014 | -0.033 ± 0.014 | -0.12 ± 0.086 | -0.0155 ± 0.015 | -0.003 ± 0.0099 | -0.08 ± 0.02 | 0.002 ± 0.062 | -0.025 ± 0.04 | -0.0475 ± 0.028 | -0.151 ± 0.0028 | -0.441 ± 0.086 | -0.047 ± 0.068 | -0.0735 ± 0.06 | -0.403 | -0.0465 ± 0.005
12 | SAg:Proliferation | -0.042 ± 0.069 | -0.004 ± 0.03 | -0.0045 ± 0.033 | -0.296 ± 0.063 | -0.0085 ± 0.07 | -0.011 ± 0.0085 | -0.0335 ± 0.086 | 0.044 ± 0.0085 | 0.041 | 0.016 ± 0.025 | -0.0055 ± 0.032 | -0.053 ± 0.023 | -0.048 ± 0.018 | 0.0035 ± 0.093 | -0.163 ± 0.021 | -0.0135 ± 0.025 | -0.058 ± 0.013 | -0.048 | -0.064 ± 0.028
13 | BE3C:IL-1alpha | -0.003 ± 0.017 | -0.019 ± 0.0057 | -0.007 ± 0.011 | -0.0735 ± 0.03 | 0.01 ± 0.0085 | -0.003 ± 0.018 | 0.071 ± 0.061 | 0.0075 ± 0.00071 | -0.0035 ± 0.0035 | 0.0185 ± 0.016 | 0.0045 ± 0.011 | 0.0025 ± 0.0078 | 0.015 ± 0.013 | -0.041 ± 0.021 | -0.093 ± 0.0071 | -0.0035 ± 0.015 | -0.022 ± 0.0099 | -0.026 | -0.014 ± 0.0014
14 | BF4T:SRB | -0.003 ± 0.0042 | -0.011 ± 0.0071 | 0.0315 ± 0.039 | -0.01 ± 0.0014 | -0.003 ± 0.0042 | -0.008 ± 0.0028 | -0.015 ± 0.0099 | -0.008 ± 0.0099 | 0.0015 ± 0.0064 | -0.0005 ± 0.013 | 0.005 ± 0.0042 | 0.002 ± 0.0028 | 0.0055 ± 0.0021 | -0.0135 ± 0.0021 | -0.031 ± 0.0014 | -0.005 ± 0.0028 | -0.0315 ± 0.0035 | -0.097 | -0.0095 ± 0.0035
15 | LPS:CCL2/MCP-1 | 0.0125 ± 0.015 | -0.002 ± 0.0028 | 0.018 ± 0.02 | -0.0285 ± 0.019 | -0.013 ± 0.0057 | -0.01 ± 0.0071 | -0.004 ± 0.013 | -0.0035 ± 0.00071 | 0.013 | 0.0525 ± 0.022 | -0.0345 ± 0.012 | -0.0435 ± 0.022 | -0.101 ± 0.067 | 0.0205 ± 0.00071 | -0.103 ± 0.0078 | -0.0035 ± 0.00071 | -0.0135 ± 0.015 | 0.01 | 0.0055 ± 0.011
